Measurements taken from PMC9260974 (BMC Pharmacology & Toxicology, 2022).

What was measured:
[1] = Single-dose two-period crossover bioequivalence study, fasting: plasma pharmacokinetics of lisinopril and amlodipine (LC-MS/MS, NCA); settings: for concentration at 0 h / concentration at 1 h / concentration at 2 h / concentration at 3 h / concentration at 4 h / concentration at 5 h / concentration at 6 h / concentration at 7 h / concentration at 8 h / concentration at 9 h / concentration at 10 h / concentration at 11 h / concentration at 12 h / concentration at 13 h / concentration at 24 h / concentration at 36 h / concentration at 48 h / concentration at 72 h / concentration at 96 h / concentration at 144 h / concentration at 168 h: human, plasma, po, Plasma concentration of amlodipine, reference (R) tablets; for concentration at 0 h: nominal time 0 h; for concentration at 1 h: nominal time 1 h; for concentration at 2 h: nominal time 2 h; for concentration at 3 h: nominal time 3 h; for concentration at 4 h: nominal time 4 h; for concentration at 5 h: nominal time 5 h; for concentration at 6 h: nominal time 6 h; for concentration at 7 h: nominal time 7 h; for concentration at 8 h: nominal time 8 h; for concentration at 9 h: nominal time 9 h; for concentration at 10 h: nominal time 10 h; for concentration at 11 h: nominal time 11 h; for concentration at 12 h: nominal time 12 h; for concentration at 13 h: nominal time 13 h; for concentration at 24 h: nominal time 24 h; for concentration at 36 h: nominal time 36 h; for concentration at 48 h: nominal time 48 h; for concentration at 72 h: nominal time 72 h; for concentration at 96 h: nominal time 96 h; for concentration at 144 h: nominal time 144 h; for concentration at 168 h: nominal time 168 h
Protocol: (§1) All eligible subjects were assigned according to the random table generated by SAS 9.4 and took the test (T) and reference(R) drugs respectively with 240 ml water after an overnight fast of at least 10 h (fasting study) or after the high-fat breakfast within half an hour before dosing (fed study). […] Subjects were forbidden to drink water within 1 h before and after taking the drug, and the lunch and dinner were provided at 4 h and 8 h respectively post-drug administration. No other food and beverage intake was permitted except the provided diets. […] 4 ml venous blood samples were collected before drug administration and at 1,2,3,4,5,6,7,8,9,10,11,12,13,24,36,48,72,96,144,168 h after administration. The samples were centrifuged at 1700gear per minute for 10 min at 4℃ to separate the plasma, which was divided into two aliquots (drug monitoring at least 800ul and backup) and stored at - 80℃until analysis.
(§2) The lower limit of quantification (LLOQ) was 0.500 ng/mL and the assay dynamic range was 0.500-100 ng/mL.
(§3) Under multiple reaction monitoring, LC–MS/MS system adopts positive ionization mode.
(§4) Data collection and analysis was performed with Analyst 1.6.3 software (Sciex, Canada) and Watson LIMS (Thermo, USA). Calibration curves were constructed using linear regression equation obtained by the weighted (W = 1/X2) least square method fitting for both analytes. Quantitation of quality control and clinical samples were also performed by the Analyst software using the same mathematical algorithm as that used in the calibration of standard curves.
(§5) For the purpose of bioequivalence analysis, the maximum observed concentration (Cmax), the area under the plasma concentration–time curve from time 0 to the last measured time point (AUC0-t), and the area under the plasma concentration–time curve from time 0 to infinity (AUC0-∞) were considered as primary PK parameters. The secondary PK parameters were the observed time to Cmax (Tmax) and the apparent terminal half-life (T1/2). Cmax and Tmax were the factually measured data and AUC0-t was calculated using the linear and logarithmic trapezoidal methods. AUC0-∞ was calculated according to the following formula: AUC0-∞ = AUC0-t + Clast/λz (Clast is the last measurable concentration and is the first order rate constant of terminal elimination determined from a linear regression line after logarithmic transformation at the end of concentration time curve. λz is the slope calculated by linear regression after logarithmic conversion at the end of the concentration–time curve). T1/2 was calculated to be ln2/λ.
(§6) Statistical analysis was performed by SAS 9.4. Demographic characteristics, safety parameters and pharmacokinetic data were summarized using descriptive statistics, the results were presented as the mean ± SD and the differences between groups were determined by two one-sided tests. […] AUC and Cmax were logarithmically transformed and analyzed by linear mixed effect model. Sequence, period and formulation were fixed effects, and subject within sequence was included as a random effect. Analysis of variance (ANOVA) of cross-over design was performed on the log-transformed variables. […] Bioequivalence was assessed separately in both the fasting and fed groups.

[2] = in vivo; cited from earlier work
clinical = settings: human, in vivo
Protocol: as §1, §2, §3, §4, §5, §6

[3] = amlodipine, intra-subject coefficient of variation

Intra-CV (%) of AUC0-t [1, 3]: 9.9%
Intra-CV (%) of AUC0-∞ [1, 3]: 10.5%
Intra-CV (%) of Cmax [1, 3]: 9.7%
concentration at 0 h ([1]; Max, maximum over subjects): 0 ng/mL
concentration at 1 h ([1]; Max, maximum over subjects): 2.24 ng/mL
concentration at 2 h ([1]; Max, maximum over subjects): 2.57 ng/mL
concentration at 3 h ([1]; Max, maximum over subjects): 3.08 ng/mL
concentration at 4 h ([1]; Max, maximum over subjects): 2.45 ng/mL
concentration at 5 h ([1]; Max, maximum over subjects): 2.98 ng/mL
concentration at 6 h ([1]; Max, maximum over subjects): 4.18 ng/mL
concentration at 7 h ([1]; Max, maximum over subjects): 2.76 ng/mL
concentration at 8 h ([1]; Max, maximum over subjects): 3.48 ng/mL
concentration at 9 h ([1]; Max, maximum over subjects): 3.04 ng/mL
concentration at 10 h ([1]; Max, maximum over subjects): 2.86 ng/mL
concentration at 11 h ([1]; Max, maximum over subjects): 2.92 ng/mL
concentration at 12 h ([1]; Max, maximum over subjects): 2.98 ng/mL
concentration at 13 h ([1]; Max, maximum over subjects): 2.75 ng/mL
concentration at 24 h ([1]; Max, maximum over subjects): 2.45 ng/mL
concentration at 36 h ([1]; Max, maximum over subjects): 1.96 ng/mL
concentration at 48 h ([1]; Max, maximum over subjects): 1.69 ng/mL
concentration at 72 h ([1]; Max, maximum over subjects): 1.21 ng/mL
concentration at 96 h ([1]; Max, maximum over subjects): 1.11 ng/mL
concentration at 144 h ([1]; Max, maximum over subjects): 0.574 ng/mL
concentration at 168 h ([1]; Max, maximum over subjects): 0.455 ng/mL
concentration at 0 h ([1]; Mean, mean of subjects): 0 ng/mL
concentration at 1 h ([1]; Mean, mean of subjects): 0.686 ng/mL
concentration at 2 h ([1]; Mean, mean of subjects): 1.24 ng/mL
concentration at 3 h ([1]; Mean, mean of subjects): 1.51 ng/mL
concentration at 4 h ([1]; Mean, mean of subjects): 1.6 ng/mL
concentration at 5 h ([1]; Mean, mean of subjects): 2.03 ng/mL
concentration at 6 h ([1]; Mean, mean of subjects): 2.16 ng/mL
concentration at 7 h ([1]; Mean, mean of subjects): 2.04 ng/mL
concentration at 8 h ([1]; Mean, mean of subjects): 2.08 ng/mL
concentration at 9 h ([1]; Mean, mean of subjects): 1.96 ng/mL
concentration at 10 h ([1]; Mean, mean of subjects): 1.85 ng/mL
concentration at 11 h ([1]; Mean, mean of subjects): 1.77 ng/mL
concentration at 12 h ([1]; Mean, mean of subjects): 1.74 ng/mL
concentration at 13 h ([1]; Mean, mean of subjects): 1.65 ng/mL
concentration at 24 h ([1]; Mean, mean of subjects): 1.41 ng/mL
concentration at 36 h ([1]; Mean, mean of subjects): 1.13 ng/mL
concentration at 48 h ([1]; Mean, mean of subjects): 0.928 ng/mL
concentration at 72 h ([1]; Mean, mean of subjects): 0.64 ng/mL
concentration at 96 h ([1]; Mean, mean of subjects): 0.446 ng/mL
concentration at 144 h ([1]; Mean, mean of subjects): 0.2 ng/mL
concentration at 168 h ([1]; Mean, mean of subjects): 0.137 ng/mL
concentration at 0 h ([1]; Min, minimum over subjects): 0 ng/mL
concentration at 1 h ([1]; Min, minimum over subjects): 0.26 ng/mL
concentration at 2 h ([1]; Min, minimum over subjects): 0.452 ng/mL
concentration at 3 h ([1]; Min, minimum over subjects): 0.598 ng/mL
concentration at 4 h ([1]; Min, minimum over subjects): 0.834 ng/mL
concentration at 5 h ([1]; Min, minimum over subjects): 1.26 ng/mL
concentration at 6 h ([1]; Min, minimum over subjects): 1.14 ng/mL
concentration at 7 h ([1]; Min, minimum over subjects): 1.03 ng/mL
concentration at 8 h ([1]; Min, minimum over subjects): 0.988 ng/mL
concentration at 9 h ([1]; Min, minimum over subjects): 0.918 ng/mL
concentration at 10 h ([1]; Min, minimum over subjects): 0.806 ng/mL
concentration at 11 h ([1]; Min, minimum over subjects): 0.82 ng/mL
concentration at 12 h ([1]; Min, minimum over subjects): 0.829 ng/mL
concentration at 13 h ([1]; Min, minimum over subjects): 0.812 ng/mL
concentration at 24 h ([1]; Min, minimum over subjects): 0.603 ng/mL
concentration at 36 h ([1]; Min, minimum over subjects): 0.482 ng/mL
concentration at 48 h ([1]; Min, minimum over subjects): 0.391 ng/mL
concentration at 72 h ([1]; Min, minimum over subjects): 0.226 ng/mL
concentration at 96 h ([1]; Min, minimum over subjects): 0.123 ng/mL
concentration at 144 h ([1]; Min, minimum over subjects): 0 ng/mL
concentration at 168 h ([1]; Min, minimum over subjects): 0 ng/mL
Tmax (clinical): ~6 h
SMILES: CCOC(=O)C1=C(COCCN)NC(C)=C(C(=O)OC)C1c1ccccc1Cl (centres unmarked) [amlodipine]
Absorption [2]: almost completely absorbed
